Measurements: patent US12350259B2, “Methods of treating migraine” (Allergan Pharmaceuticals International Limited, priority 2021, dated 2025)
Where two headings read alike, the source gives them in different places.

How the values were obtained:
[1] = Atogepant-esomeprazole drug interaction study: atogepant PK; assay type: in vivo, human; details: for Tmax: human, plasma, oral
Procedure: A phase 1, open-label, 2-intervention, single-sequence, nonrandomized, crossover, drug-drug interaction study was conducted to evaluate the effects of multiple-dose esomeprazole magnesium 40 mg on pharmacokinetics (PK) and safety of co-administered single-dose atogepant 60 mg in healthy adults.
In this study, healthy adult participants received single-dose oral atogepant 60 mg on day 1, followed by once-daily esomeprazole 40 mg on days 7-13, co-administered with single-dose atogepant on day 12. Samples for atogepant PK analysis were collected on days 1 and 12. PK parameters calculated from atogepant plasma concentrations included peak plasma concentration (Cmax); time to Cmax (tmax); area under plasma concentration-time curve from time 0 to […] (AUC0-t) and from time 0 to infinity (AUC0-∞). PK parameters of atogepant alone vs. co-administered with esomeprazole were compared using a mixed-effects model. Statistical significance was achieved if 90% confidence intervals (CIs) for geometric least squares mean ratios (GMRs) of PK parameter values for atogepant co-administered with esomeprazole to atogepant administered alone were within 80%-125%.

[2] = Food effect study (high-fat meal), atogepant IR tablet: plasma PK; assay type: in vivo, human; details: for AUC(0-inf) / AUC(0-t) / Cmax / Tmax / Vd/F: both sexes, human, plasma, oral, 60 mg; for Vd/F: read-out: Vz/F
Procedure: A single-center, randomized, open-label, single-dose, 2-period cross-over study was conducted to evaluate the effect of a high-fat meal on the systemic exposure of atogepant following single-dose administration of an immediate release (IR) tablet in healthy adult participants. Secondary objectives were to evaluate the secondary PK parameters of atogepant following single-dose administration of an IR tablet formulation of atogepant in healthy participants under fasted and fed conditions; and to evaluate the safety and tolerability profiles of single-dose atogepant in healthy adult participants under fed and fasted conditions. […] Plasma samples were collected pre-dose and at predetermined time intervals up to 48 hours after dosing. Atogepant plasma concentrations were determined using a validated LC-MS/MS assay and the pharmacokinetic (PK) parameters were calculated using WinNonlin. A linear mixed-effects model with sequence, study intervention, and period as fixed effects, and participant nested within sequence as a random effect was used to compare the natural logarithm transformed values of atogepant PK parameters AUC0-t, AUC0-inf, and Cmax. Safety was monitored via ECGs, vital signs, clinical labs, and adverse events. […] Screening occurred within 21 days before dosing (Days −21 to −1). The study intervention period was scheduled for a total of 11 days (Days −1 to 10), and the follow-up visit occurred with serum chemistry on day 38 (±3), (30 [±3] days after the last dose on Day 8). PK blood samples for analysis of plasma atogepant concentrations were collected starting on Days 1 (period 1) and 8 (period 2); at 0 hour (predose) and 0.5, 1, 1.5, 2, 3, 4, 6, 8, 12, 16, 24, 36, and 48 hours postdose. • Linear mixed effects model with natural logarithm-transformed values of AUC0-t, AUC0-inf, and Cmax, as the dependent variable and terms for study intervention, sequence, and period as fixed independent variables and participant nested in sequence as a random effect.

[3] = Excretion after single oral dose of 14C-atogepant; assay type: in vivo, human; details: single oral dose of 50 mg 14C-atogepant, healthy male subjects
Procedure: The parent compound (atogepant) and a glucuronide conjugate metabolite (M23) were the most prevalent circulating components in human plasma. […] Following a single oral dose of 50 mg ^14C-atogepant to healthy male subjects, 42% and 5% of the dose was recovered as unchanged atogepant in feces and urine, respectively.

[4] = target: CYP1A2 (Homo sapiens, UniProt P05177); test: In vitro CYP inhibition; assay type: in vitro ADME; details: clinically relevant concentrations
[5] = target: OATP1B1 (Homo sapiens, UniProt Q9Y6L6); test: Transporter substrate; assay type: in vitro ADME
[6] = target: BCRP (Homo sapiens, UniProt Q9UNQ0); test: Transporter inhibition; assay type: in vitro ADME; details: clinically relevant concentrations
[7] = target: OAT3 (Homo sapiens, UniProt Q8TCC7); test: Transporter inhibition; assay type: in vitro ADME; details: clinically relevant concentrations
[8] = target: MRP3 (Homo sapiens, UniProt O15438); test: Transporter inhibition; assay type: in vitro ADME; details: clinically relevant concentrations
[9] = target: MRP4 (Homo sapiens, UniProt O15439); test: Transporter inhibition; assay type: in vitro ADME; details: clinically relevant concentrations
[10] = Study Intervention A: 1 × 60 mg IR tablet, fed
[11] = Study Intervention B: 1 × 60 mg IR tablet, fasted
[12] = All participants (N = 32), Treatments A, B1, B2
[13] = Treatment A: atogepant 60 mg alone (N = 32)
[14] = Treatment B1: atogepant 60 mg + rifampin 600 mg Day 7, rifampin Days 8-11 (N = 31)
[15] = Treatment B2: atogepant 60 mg + rifampin 600 mg Day 12, rifampin Day 13 (N = 31)
[16] = after Treatment B1 (atogepant + rifampin)
[17] = during the study, all treatments
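Throughout, for Deaths: safety population of participants given at least one dose, adverse events recorded through clinical assessment across the whole study.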
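Throughout, for TEAE leading to treatment discontinuation: safety population of participants given at least one dose, adverse events recorded through clinical assessment across the whole study.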
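Throughout, for Treatment-Emergent Serious Adverse Events (TESAE): safety population of participants given at least one dose, adverse events recorded through clinical assessment across the whole study.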
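Throughout, for Treatment-emergent adverse events (TEAE): safety population of participants given at least one dose, adverse events recorded through clinical assessment across the whole study.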

Sequence of OATP1B1 (Q9Y6L6 whole entry): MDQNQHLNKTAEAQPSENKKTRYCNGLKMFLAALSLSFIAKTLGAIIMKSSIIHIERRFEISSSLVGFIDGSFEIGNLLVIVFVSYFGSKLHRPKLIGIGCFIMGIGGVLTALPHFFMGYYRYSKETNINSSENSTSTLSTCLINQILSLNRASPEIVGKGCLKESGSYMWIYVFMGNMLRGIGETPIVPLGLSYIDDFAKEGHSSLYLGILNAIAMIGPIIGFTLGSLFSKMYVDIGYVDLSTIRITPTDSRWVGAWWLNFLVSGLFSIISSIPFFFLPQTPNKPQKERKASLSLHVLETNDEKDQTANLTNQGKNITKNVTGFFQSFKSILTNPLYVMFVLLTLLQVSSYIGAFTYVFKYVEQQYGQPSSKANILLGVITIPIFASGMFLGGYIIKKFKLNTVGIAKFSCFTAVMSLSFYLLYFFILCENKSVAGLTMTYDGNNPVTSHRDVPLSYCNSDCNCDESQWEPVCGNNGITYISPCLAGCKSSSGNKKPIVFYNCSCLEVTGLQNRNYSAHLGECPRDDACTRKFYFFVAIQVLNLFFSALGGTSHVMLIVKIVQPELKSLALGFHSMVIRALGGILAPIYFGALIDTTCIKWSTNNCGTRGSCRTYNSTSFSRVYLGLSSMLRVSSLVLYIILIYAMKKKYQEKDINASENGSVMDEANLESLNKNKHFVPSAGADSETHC
Sequence of MRP4 (O15439 whole entry): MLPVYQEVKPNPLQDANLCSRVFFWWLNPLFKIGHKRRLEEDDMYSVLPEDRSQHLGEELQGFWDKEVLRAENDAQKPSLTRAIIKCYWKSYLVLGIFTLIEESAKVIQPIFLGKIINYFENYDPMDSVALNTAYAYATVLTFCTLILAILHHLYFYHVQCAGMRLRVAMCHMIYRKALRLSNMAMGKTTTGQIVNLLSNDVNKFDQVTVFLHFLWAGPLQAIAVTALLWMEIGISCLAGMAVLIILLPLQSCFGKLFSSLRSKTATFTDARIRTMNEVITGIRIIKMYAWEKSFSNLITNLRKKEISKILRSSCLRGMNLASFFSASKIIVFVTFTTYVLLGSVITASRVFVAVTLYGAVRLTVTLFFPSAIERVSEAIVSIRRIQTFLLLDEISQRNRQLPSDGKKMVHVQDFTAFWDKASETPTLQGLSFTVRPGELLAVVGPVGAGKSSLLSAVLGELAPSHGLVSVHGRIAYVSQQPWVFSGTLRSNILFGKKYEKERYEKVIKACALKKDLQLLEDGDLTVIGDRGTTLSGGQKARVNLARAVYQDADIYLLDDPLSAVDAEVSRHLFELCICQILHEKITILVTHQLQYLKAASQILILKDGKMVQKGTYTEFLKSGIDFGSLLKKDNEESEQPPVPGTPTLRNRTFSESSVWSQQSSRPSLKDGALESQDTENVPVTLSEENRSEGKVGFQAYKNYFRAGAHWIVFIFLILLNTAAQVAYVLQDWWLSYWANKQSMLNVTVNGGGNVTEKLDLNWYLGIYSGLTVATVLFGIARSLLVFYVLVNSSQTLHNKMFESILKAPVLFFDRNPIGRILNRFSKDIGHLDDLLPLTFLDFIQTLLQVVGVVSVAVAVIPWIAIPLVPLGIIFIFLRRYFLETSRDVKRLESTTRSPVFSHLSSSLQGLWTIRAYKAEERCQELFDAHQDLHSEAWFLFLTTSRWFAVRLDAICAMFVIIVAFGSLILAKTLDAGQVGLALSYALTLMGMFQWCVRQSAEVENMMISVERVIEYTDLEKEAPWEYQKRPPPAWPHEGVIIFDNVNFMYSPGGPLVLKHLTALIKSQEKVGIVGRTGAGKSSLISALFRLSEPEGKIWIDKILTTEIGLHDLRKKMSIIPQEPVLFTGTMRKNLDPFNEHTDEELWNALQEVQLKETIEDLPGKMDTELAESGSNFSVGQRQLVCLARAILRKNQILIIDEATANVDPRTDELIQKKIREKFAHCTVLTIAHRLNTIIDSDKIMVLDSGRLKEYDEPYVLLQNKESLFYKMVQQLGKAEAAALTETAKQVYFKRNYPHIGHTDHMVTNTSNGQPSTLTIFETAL
Sequence of CYP1A2 (P05177 whole entry): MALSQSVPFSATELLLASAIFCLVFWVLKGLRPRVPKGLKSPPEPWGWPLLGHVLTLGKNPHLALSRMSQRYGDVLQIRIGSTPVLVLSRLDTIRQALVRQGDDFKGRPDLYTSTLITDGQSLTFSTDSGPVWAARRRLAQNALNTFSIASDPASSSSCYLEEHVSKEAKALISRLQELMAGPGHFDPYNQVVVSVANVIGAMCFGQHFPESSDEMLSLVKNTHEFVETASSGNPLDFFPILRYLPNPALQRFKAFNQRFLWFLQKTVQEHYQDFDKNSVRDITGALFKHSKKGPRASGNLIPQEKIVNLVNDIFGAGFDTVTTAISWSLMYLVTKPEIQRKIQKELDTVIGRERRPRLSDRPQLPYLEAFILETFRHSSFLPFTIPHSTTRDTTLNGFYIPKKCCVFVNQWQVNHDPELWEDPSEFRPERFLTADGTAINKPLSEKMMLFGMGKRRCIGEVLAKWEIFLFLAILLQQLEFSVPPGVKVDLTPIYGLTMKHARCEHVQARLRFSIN
Sequence of MRP3 (O15438 whole entry): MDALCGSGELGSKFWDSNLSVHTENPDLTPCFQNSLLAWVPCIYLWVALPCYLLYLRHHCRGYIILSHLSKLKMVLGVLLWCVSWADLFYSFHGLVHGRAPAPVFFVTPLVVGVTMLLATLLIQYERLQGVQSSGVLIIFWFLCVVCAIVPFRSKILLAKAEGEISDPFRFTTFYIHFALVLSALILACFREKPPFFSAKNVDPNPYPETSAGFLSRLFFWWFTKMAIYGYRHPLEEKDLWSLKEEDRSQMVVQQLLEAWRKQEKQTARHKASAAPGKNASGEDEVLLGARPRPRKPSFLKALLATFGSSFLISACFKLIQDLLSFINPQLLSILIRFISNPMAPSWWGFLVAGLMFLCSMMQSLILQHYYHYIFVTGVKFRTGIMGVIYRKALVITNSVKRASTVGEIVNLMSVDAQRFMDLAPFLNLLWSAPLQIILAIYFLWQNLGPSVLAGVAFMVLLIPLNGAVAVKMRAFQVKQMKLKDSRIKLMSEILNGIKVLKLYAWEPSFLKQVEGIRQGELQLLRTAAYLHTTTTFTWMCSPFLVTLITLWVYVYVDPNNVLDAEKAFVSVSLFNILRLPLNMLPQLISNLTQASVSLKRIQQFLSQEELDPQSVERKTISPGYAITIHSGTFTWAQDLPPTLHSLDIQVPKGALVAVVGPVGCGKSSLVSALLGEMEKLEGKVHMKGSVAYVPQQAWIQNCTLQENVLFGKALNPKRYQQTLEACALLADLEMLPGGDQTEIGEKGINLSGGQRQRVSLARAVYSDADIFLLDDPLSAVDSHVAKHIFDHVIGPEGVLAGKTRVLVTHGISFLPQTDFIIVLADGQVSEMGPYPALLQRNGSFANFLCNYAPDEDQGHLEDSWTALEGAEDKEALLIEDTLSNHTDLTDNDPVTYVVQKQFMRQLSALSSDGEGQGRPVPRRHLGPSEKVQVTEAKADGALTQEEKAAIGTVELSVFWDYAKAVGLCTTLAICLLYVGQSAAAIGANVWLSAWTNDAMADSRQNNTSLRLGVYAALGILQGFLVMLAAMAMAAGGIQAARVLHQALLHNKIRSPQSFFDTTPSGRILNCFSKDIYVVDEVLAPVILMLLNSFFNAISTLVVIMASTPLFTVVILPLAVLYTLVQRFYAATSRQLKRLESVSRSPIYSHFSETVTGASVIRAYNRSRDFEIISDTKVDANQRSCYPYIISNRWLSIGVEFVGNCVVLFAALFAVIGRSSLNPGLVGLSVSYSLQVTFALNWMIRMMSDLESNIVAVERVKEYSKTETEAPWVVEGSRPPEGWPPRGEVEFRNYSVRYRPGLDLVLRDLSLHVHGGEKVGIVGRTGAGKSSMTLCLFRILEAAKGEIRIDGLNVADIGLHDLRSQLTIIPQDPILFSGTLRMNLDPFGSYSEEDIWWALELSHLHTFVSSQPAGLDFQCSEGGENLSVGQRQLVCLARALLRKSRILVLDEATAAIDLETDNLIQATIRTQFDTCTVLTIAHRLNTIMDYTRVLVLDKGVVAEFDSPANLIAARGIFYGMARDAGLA
Sequence of BCRP (Q9UNQ0 whole entry): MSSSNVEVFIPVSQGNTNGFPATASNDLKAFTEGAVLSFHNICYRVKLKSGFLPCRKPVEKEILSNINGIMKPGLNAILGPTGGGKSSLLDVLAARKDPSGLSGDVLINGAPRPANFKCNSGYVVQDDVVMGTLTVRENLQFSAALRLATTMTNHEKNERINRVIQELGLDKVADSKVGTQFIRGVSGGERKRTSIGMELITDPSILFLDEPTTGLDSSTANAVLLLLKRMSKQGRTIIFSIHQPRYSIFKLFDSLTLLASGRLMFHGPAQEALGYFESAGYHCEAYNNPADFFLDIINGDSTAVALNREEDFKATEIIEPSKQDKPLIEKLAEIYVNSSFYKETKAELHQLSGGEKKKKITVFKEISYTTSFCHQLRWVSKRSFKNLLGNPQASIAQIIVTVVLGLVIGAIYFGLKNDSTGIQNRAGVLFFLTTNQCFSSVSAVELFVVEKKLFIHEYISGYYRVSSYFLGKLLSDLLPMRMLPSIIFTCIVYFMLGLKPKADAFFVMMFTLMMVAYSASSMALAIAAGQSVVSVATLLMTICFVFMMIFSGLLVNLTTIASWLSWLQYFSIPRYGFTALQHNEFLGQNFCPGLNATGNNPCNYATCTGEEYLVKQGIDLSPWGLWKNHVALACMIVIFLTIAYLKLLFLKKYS

C[C@@H]1[C@H](c2c(F)ccc(F)c2F)C[C@H](NC(=O)c2cnc3c(c2)C[C@@]2(C3)C(=O)Nc3ncccc32)C(=O)N1CC(F)(F)F [atogepant, (3′S)-N-[(3S,5S,6R)-6-methyl-2-oxo-1-(2,2,2-trifluoroethyl)-5-(2,3,6-trifluorophenyl)piperidin-3-yl]-2′-oxo-1′,2′,5,7-tetrahydrospiro[cyclopenta[b]pyridine-6,3′-pyrrolo[2,3-b]pyridine]-3-carboxamide]
reduced Cmax ([1]; coadministration with esomeprazole): 23%
Tmax ([1]; 60 mg, atogepant 60 mg alone, read-out: median plasma atogepant tmax): 1.51 h
Tmax ([1]; atogepant 60 mg coadministered with esomeprazole 40 mg, read-out: median plasma atogepant tmax): 3 h
Tmax ([1]; coadministration with esomeprazole vs alone, read-out: delay of median tmax): 1.5 h
CL/F [2, 10]: 26.10 L/h
Tlag (median) [2, 10]: 0 h
tt/2 [2, 10]: 9.41 h
λz [2, 10]: 0.0840 h⁻¹
CL/F [2, 11]: 21.03 L/h
Tlag (median) [2, 11]: 0 h
tt/2 [2, 11]: 9.71 h
λz [2, 11]: 0.0799 h⁻¹
AUC(0-inf) ([2]; Fasted (Ref), read-out: AUC0-inf GLSM): 3160 ng·h/mL
AUC(0-t) ([2]; Fasted (Ref), read-out: AUC0-t GLSM): 3130 ng·h/mL
Cmax ([2]; Fasted (Ref), read-out: Cmax GLSM): 677 ng/mL
Tmax ([2]; Fasted (ref), read-out: Tmax Median): 2.01 h
AUC(0-inf) ([2]; Fed (Test), read-out: AUC0-inf GLSM): 2610 ng·h/mL
AUC(0-t) ([2]; Fed (Test), read-out: AUC0-t GLSM): 2560 ng·h/mL
Cmax ([2]; Fed (Test), read-out: Cmax GLSM): 527 ng/mL
Tmax ([2]; Fed (Test), read-out: Tmax Median): 2.01 h
AUC(0-inf) ([2]; Study Intervention A: 1 × 60 mg IR tablet, fed, read-out: AUC0-inf): 3200 ng·h/mL
AUC(0-t) ([2]; Study Intervention A: 1 × 60 mg IR tablet, fed, read-out: AUC0-t): 3090 ng·h/mL
Cmax ([2]; Study Intervention A: 1 × 60 mg IR tablet, fed, read-out: Cmax): 594 ng/mL
Tmax ([2]; Study Intervention A: 1 × 60 mg IR tablet, fed, read-out: Tmax (median)): 2.01 h
Vd/F [2, 10]: 368 L
AUC(0-inf) ([2]; Study Intervention B: 1 × 60 mg IR tablet, fasted, read-out: AUC0-inf): 3490 ng·h/mL
AUC(0-t) ([2]; Study Intervention B: 1 × 60 mg IR tablet, fasted, read-out: AUC0-t): 3460 ng·h/mL
Cmax ([2]; Study Intervention B: 1 × 60 mg IR tablet, fasted, read-out: Cmax): 732 ng/mL
Tmax ([2]; Study Intervention B: 1 × 60 mg IR tablet, fasted, read-out: Tmax (median)): 2.01 h
Vd/F [2, 11]: 299 L
Tmax ([2]; fed vs fasted, read-out: Tmax Median of Paired Differences (Test Minus Reference)): 0.5 h
AUC0-inf Ratio of GLSMs Test/Ref ([2]; fed vs fasted): 82.53%
AUC0-t Ratio of GLSMs Test/Ref ([2]; fed vs fasted): 81.70%
Cmax Ratio of GLSMs Test/Ref ([2]; fed vs fasted): 77.90%
effect on median time to maximum atogepant plasma concentration ([2]; high-fat meal): no effect
reduction of AUC ([2]; high-fat meal (fed) vs fasted): approximately 18%
dose recovered as unchanged atogepant in feces [3]: 42%
dose recovered as unchanged atogepant in urine [3]: 5%
inhibition of CYP1A2 [4]: not an inhibitor
substrate of OATP1B1 [5]: substrate
inhibition of BCRP [6]: not an inhibitor
inhibition of OAT3 [7]: not an inhibitor
inhibition of MRP3 [8]: not an inhibitor
inhibition of MRP4 [9]: not an inhibitor
Deaths [12]: 0 n (%)
TEAE leading to treatment discontinuation [12]: 0 n (%)
Treatment-Emergent Serious Adverse Events (TESAE) [12]: 0 n (%)
Treatment-emergent adverse events (TEAE) [12]: 11 (34.4) n (%)
Deaths [13]: 0 n (%)
TEAE leading to treatment discontinuation [13]: 0 n (%)
Treatment-Emergent Serious Adverse Events (TESAE) [13]: 0 n (%)
Treatment-emergent adverse events (TEAE) [13]: 0 n (%)
Deaths [14]: 0 n (%)
TEAE leading to treatment discontinuation [14]: 0 n (%)
Treatment-Emergent Serious Adverse Events (TESAE) [14]: 0 n (%)
Treatment-emergent adverse events (TEAE) [14]: 8 (25.8) n (%)
Deaths [15]: 0 n (%)
TEAE leading to treatment discontinuation [15]: 0 n (%)
Treatment-Emergent Serious Adverse Events (TESAE) [15]: 0 n (%)
Treatment-emergent adverse events (TEAE) [15]: 5 (16.1) n (%)
participants with at least one treatment-related TEAE [16]: 12.9%
participants with headache (most common TEAE) [16]: 6.5%
participants with at least one treatment-related TEAE (after Treatment B2 (atogepant + rifampin)): 6.5%
changes in clinical laboratory test results, vital signs, ECG findings (atogepant alone or with rifampin): no notable changes from baseline
tolerability (atogepant and rifampin, healthy participants): well tolerated
participants with at least one treatment-related TEAE [17]: 15.6%
participants with mild TEAEs [17]: 31.3%
participants with moderate TEAEs (during the study, after Treatment B1): 3.1%
participants with treatment-related nausea (during the study, one after B1, one after B2): 6.3%
